We go through 26 compounds from patent US9187472B2 (AbbVie Inc., priority 2012, dated 2015).

Each structure is given as a SMILES string.

For assay [1], the target named is NAMPT (human, recombinant, C-terminally His-tagged) (Homo sapiens, UniProt P43490). Briefly: Time-Resolved Fluorescence Resonance Energy Transfer (TR-FRET) Binding Assay of NAMPT. To be noted: without substrates; 6.8 nM NAMPT, 200 nM probe, 3 hours equilibration. The method, boiled down:
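A TR-FRET probe-displacement assay used 6.8 nM His-tagged recombinant human NAMPT, 200 nM Oregon Green 488-labelled nicotinamide-competitive probe and 1 nM Tb-anti-His antibody. Buffer was HEPES pH 7.5 with NaCl, MgCl2, DTT and glycerol, plus 2% DMSO, equilibrated 3 h at room temperature. Em520/Em495 ratios, normalized to controls, gave IC50 by four-parameter logistic fit.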
For orientation: Time-resolved FRET reads energy transfer from a long-lived donor to a nearby acceptor.

For another assay, the system named is PC3 cells. Briefly: NAMPT Cell Proliferation Assay. The conditions noted are these: Homo sapiens, PC-3, 120 h, 5 days incubation, cell viability by Cell Titer Glo. In kind it is cell-based. The gist of the method:
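Following overnight attachment in RPMI with 10% heat-inactivated FBS, PC3 cells at 500 per well receive compounds spanning 10 μM down to 1×10^−5 μM. Growth is assessed by luminescent viability read after 5 days.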

The next assay has as its target NAMPT (Homo sapiens, UniProt P43490). The assay is described as follows: TR-FRET Binding Assay of NAMPT with PRPP. To be noted: with 200 μM PRPP and 2.5 mM ATP; 2 nM NAMPT, 2 nM probe, 16 hours equilibration. The method, boiled down:
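Human NAMPT (2 nM) with 2 nM probe and 1 nM Tb-anti-His antibody, plus 200 μM PRPP and 2.5 mM ATP, 2% DMSO. TR-FRET read after 16 h equilibration, permitting possible enzymatic modification of test compounds; data processing as for the substrate-free format.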

Chain of NAMPT (P43490 whole entry): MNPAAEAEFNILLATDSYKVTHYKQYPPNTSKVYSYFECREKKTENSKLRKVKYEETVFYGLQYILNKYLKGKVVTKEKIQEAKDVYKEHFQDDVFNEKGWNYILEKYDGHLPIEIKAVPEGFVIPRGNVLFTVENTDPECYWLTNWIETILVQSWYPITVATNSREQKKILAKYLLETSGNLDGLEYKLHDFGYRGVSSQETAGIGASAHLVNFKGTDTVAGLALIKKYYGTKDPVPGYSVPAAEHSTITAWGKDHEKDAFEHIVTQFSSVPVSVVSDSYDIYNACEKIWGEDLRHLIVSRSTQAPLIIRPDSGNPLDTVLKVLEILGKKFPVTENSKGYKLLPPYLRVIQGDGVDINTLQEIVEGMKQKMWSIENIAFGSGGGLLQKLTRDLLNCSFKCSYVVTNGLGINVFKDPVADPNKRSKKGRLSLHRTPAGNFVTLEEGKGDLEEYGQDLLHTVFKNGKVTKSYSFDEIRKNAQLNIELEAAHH
Chain of NAMPT (human, recombinant, C-terminally His-tagged) (P43490 whole entry): as above

As usually defined, the IC50 is the midpoint of a concentration-inhibition curve. Regarding `CC[C@H](C)C(=O)N1CC(Oc2ccc(NC(=O)NCc3ccn4ccnc4c3)cc2)C1` [Example 426, 1-(imidazo[1,2-a]pyridin-7-ylmethyl)-3-[4-({1-[(2S)-2-methylbutanoyl]azetidin-3-yl}oxy)phenyl]urea], the results for the IC50 (in assay [1]; in the assay with PC3 cells; on NAMPT) were 25.6 nM, 6.4 nM and 0.169 nM, respectively.

As to `CCC(C)(C)C(=O)N1CCC(c2ccc(C(=O)NCc3ccn4ccnc4c3)cc2)CC1` [Example 501, 4-[1-(2,2-dimethylbutanoyl)piperidin-4-yl]-N-(imidazo[1,2-a]pyridin-7-ylmethyl)benzamide], the IC50 was 104 nM in assay [1], 5.96 nM in the assay with PC3 cells and 0.483 nM on NAMPT.

Consider `CC(C)OCC(=O)N1CCC(Oc2ccc(C(=O)NCc3ccc4nccn4c3)cc2)CC1` [Example 167, N-(imidazo[1,2-a]pyridin-6-ylmethyl)-4-({1-[(propan-2-yloxy)acetyl]piperidin-4-yl}oxy)benzamide], for which the IC50 amounted to 1730 nM in assay [1], 104 nM in the assay with PC3 cells and 2.52 nM at NAMPT.

As to `CC(C)(C)C(=O)N1CC(c2ccc(C(=O)NCc3ccn4ccnc4c3)cc2)C1` [Example 633, 4-[1-(2,2-dimethylpropanoyl)azetidin-3-yl]-N-(imidazo[1,2-a]pyridin-7-ylmethyl)benzamide], the half-maximal inhibitory concentration (IC50) in assay [1] amounted to 335 nM; with PC3 cells, 12 nM; on NAMPT it was 0.707 nM.

For `O=C(NCc1ccn2ccnc2c1)c1ccc(C2(O)CN(C(=O)c3ccccc3)C2)s1` [Example 401, 5-(1-benzoyl-3-hydroxyazetidin-3-yl)-N-(imidazo[1,2-a]pyridin-7-ylmethyl)thiophene-2-carboxamide], the IC50 came out at 12.6 nM in assay [1], 55.9 nM in the assay on PC3 cells and 0.292 nM on NAMPT.

Take `CC(C)(O)Cn1cc(-c2ccc(C(=O)NCc3ccn4ccnc4c3)cc2)cn1` [Example 298, 4-[1-(2-hydroxy-2-methylpropyl)-1H-pyrazol-4-yl]-N-(imidazo[1,2-a]pyridin-7-ylmethyl)benzamide]: the results for the IC50 (in assay [1]; in the assay with PC3 cells; at NAMPT) were 3410 nM, 2370 nM and 0.557 nM, respectively.

In the case of `O=C(NCc1ccn2ccnc2c1)c1ccc(-c2cnn(CC3CCOC3)c2)s1` (stereo not drawn) [Example 252, N-(imidazo[1,2-a]pyridin-7-ylmethyl)-5-[1-(tetrahydrofuran-3-ylmethyl)-1H-pyrazol-4-yl]thiophene-2-carboxamide], the IC50 in assay [1] was 37.4 nM; in the assay on PC3 cells, 1.91 nM; at NAMPT, 0.274 nM.

Turning to `O=C(NCc1ccn2ccnc2c1)c1ccc(O[C@H]2CCN(C(=O)C3CC3)C2)cc1` [Example 352, 4-{[(3S)-1-(cyclopropylcarbonyl)pyrrolidin-3-yl]oxy}-N-(imidazo[1,2-a]pyridin-7-ylmethyl)benzamide], the IC50 in assay [1] is above 10000 nM; in the assay with PC3 cells, 9800 nM; at NAMPT it was 1.06 nM.

For `O=C(NCc1ccn2ccnc2c1)c1ccc(C2CCN(C(=O)C3CCCC3)C2)cc1` (stereo not drawn) [Example 583, 4-[1-(cyclopentylcarbonyl)pyrrolidin-3-yl]-N-(imidazo[1,2-a]pyridin-7-ylmethyl)benzamide], the IC50 worked out at 1120 nM in assay [1], 189 nM with PC3 cells and 0.799 nM at NAMPT.

For the compound `CC(C)CC(=O)N1CCC(n2nccc2C(=O)NCc2ccn3ccnc3c2)CC1` [Example 409], the IC50 in assay [1] was above 10000 nM; in the assay with PC3 cells, at least 10000 nM; at NAMPT, 480 nM.

As to `O=C(NCc1ccn2ccnc2c1)Nc1ccc(OC2CCN(C(=O)c3cccc(F)c3)CC2)cc1` [Example 726, 1-(4-{[1-(3-fluorobenzoyl)piperidin-4-yl]oxy}phenyl)-3-(imidazo[1,2-a]pyridin-7-ylmethyl)urea], the figures for the IC50 (in assay [1]; in the assay with PC3 cells; on NAMPT) were 251 nM, 71.9 nM and 0.534 nM, respectively.

For the compound `CC(=O)N1CCC(Oc2ccc(C(=O)NCc3ccn4ccnc4c3)cc2)CC1` [Example 411, 4-[(1-acetylpiperidin-4-yl)oxy]-N-(imidazo[1,2-a]pyridin-7-ylmethyl)benzamide], the IC50 came out at 1870 nM in assay [1], 4720 nM with PC3 cells and 0.556 nM at NAMPT.

In the case of `O=C(CCC(F)(F)F)Nc1ccc(NC(=O)Nc2ccc3nccn3c2)cc1` [Example 45, 4,4,4-trifluoro-N-{4-[(imidazo[1,2-a]pyridin-6-ylcarbamoyl)amino]phenyl}butanamide], the IC50 stood at 879 nM in assay [1], 2070 nM in the assay on PC3 cells and 1.19 nM on NAMPT.

As for `O=C(NCc1ccc2nccn2c1)c1cnc(N2CCc3ccccc3CC2)s1` [Example 85, N-(imidazo[1,2-a]pyridin-6-ylmethyl)-2-(1,2,4,5-tetrahydro-3H-3-benzazepin-3-yl)-1,3-thiazole-5-carboxamide], the IC50 in assay [1] amounted to 4070 nM; in the assay on PC3 cells, 2610 nM; at NAMPT, 1.41 nM.

In the case of `CC(C)(O)C(=O)N1CCC(Oc2ccc(C(=O)NCc3ccn4ccnc4c3)cc2)CC1` [Example 417, 4-{[1-(2-hydroxy-2-methylpropanoyl)piperidin-4-yl]oxy}-N-(imidazo[1,2-a]pyridin-7-ylmethyl)benzamide], the IC50 in assay [1] amounted to 6840 nM; in the assay on PC3 cells, 867 nM; on NAMPT, 0.264 nM.

As to `O=C(NCc1ccn2ccnc2c1)c1cnc(N2CC(CO)OC2=O)s1` (stereo not drawn) [Example 251, 2-[5-(hydroxymethyl)-2-oxo-1,3-oxazolidin-3-yl]-N-(imidazo[1,2-a]pyridin-7-ylmethyl)-1,3-thiazole-5-carboxamide], the IC50 is 2200 nM in assay [1], 1840 nM in the assay on PC3 cells and 0.63 nM at NAMPT.

Consider `O=C(NCCCCC1CCN(C(=O)c2ccccc2)CC1)Nc1ccc2nccn2c1` [Example 107, 1-[4-(1-benzoylpiperidin-4-yl)butyl]-3-imidazo[1,2-a]pyridin-6-ylurea], for which the results for the 50% inhibitory concentration (IC50) (in assay [1]; in the assay with PC3 cells; at NAMPT) were 45.1 nM, 10.8 nM and 0.492 nM, respectively.

As for `O=C(NCc1ccn2ccnc2c1)Nc1ccc(C2CCN(C(=O)[C@@H]3CCCO3)C2)cc1` (stereo partly drawn) [Example 387, 1-(imidazo[1,2-a]pyridin-7-ylmethyl)-3-(4-{1-[(2S)-tetrahydrofuran-2-ylcarbonyl]pyrrolidin-3-yl}phenyl)urea], the values for the IC50 (in assay [1]; in the assay with PC3 cells; on NAMPT) were 419 nM, 58.1 nM and 0.467 nM, respectively.

With `O=C(CC1CCOCC1)Nc1ccc(NC(=O)NCc2ccn3ccnc3c2)cc1` [Example 284, N-(4-{[(imidazo[1,2-a]pyridin-7-ylmethyl)carbamoyl]amino}phenyl)-2-(tetrahydro-2H-pyran-4-yl)acetamide], the figures for the IC50 (in assay [1]; in the assay on PC3 cells; at NAMPT) were 7.96 nM, 107 nM and 0.169 nM, respectively.

With `O=C(CC1CCCC1)Nc1ccc(NC(=O)NCc2ccn3ccnc3c2)cc1` [Example 118, 2-cyclopentyl-N-(4-{[(imidazo[1,2-a]pyridin-7-ylmethyl)carbamoyl]amino}phenyl)acetamide], the IC50 worked out at 35.2 nM in assay [1], 18.2 nM with PC3 cells and 0.234 nM at NAMPT.

As for `O=C(Nc1ccc(C(=O)NCCCN2CCOCC2)cc1)Nc1ccc2nccn2c1` [Example 18, 4-[(imidazo[1,2-a]pyridin-6-ylcarbamoyl)amino]-N-[3-(morpholin-4-yl)propyl]benzamide], the IC50 in assay [1] was 2730 nM; in the assay on PC3 cells it was 360 nM; on NAMPT, 0.418 nM.

Turning to `CC[C@H](C)C(=O)N1CCC(c2ccc(C(=O)NCc3ccn4ccnc4c3)cc2)C1` (stereo partly drawn) [Example 368, N-(imidazo[1,2-a]pyridin-7-ylmethyl)-4-{1-[(2S)-2-methylbutanoyl]pyrrolidin-3-yl}benzamide], the IC50 in assay [1] was found to be 602 nM; in the assay with PC3 cells, 48.4 nM; on NAMPT, 0.317 nM.

As for `O=C(NCc1ccc2nccn2c1)c1ccc(-c2cnn(CC3CCOCC3)c2)s1` [Example 201, N-(imidazo[1,2-a]pyridin-6-ylmethyl)-5-[1-(tetrahydro-2H-pyran-4-ylmethyl)-1H-pyrazol-4-yl]thiophene-2-carboxamide], the IC50 was determined as 46.6 nM in assay [1], 1.89 nM with PC3 cells and 0.281 nM at NAMPT.

For the compound `O=C(NCc1ccn2ccnc2c1)c1ccc(N2CC(CO)OC2=O)s1` (stereo not drawn) [Example 266, 5-[5-(hydroxymethyl)-2-oxo-1,3-oxazolidin-3-yl]-N-(imidazo[1,2-a]pyridin-7-ylmethyl)thiophene-2-carboxamide], the figures for the IC50 (in assay [1]; with PC3 cells; on NAMPT) were 120 nM, 606 nM and 0.333 nM, respectively.

As for `O=C(NCc1ccn2ccnc2c1)c1ccc(C2CCN(C(=O)C3CCOCC3)CC2)cc1` [Example 232, N-(imidazo[1,2-a]pyridin-7-ylmethyl)-4-[1-(tetrahydro-2H-pyran-4-ylcarbonyl)piperidin-4-yl]benzamide], the IC50 in assay [1] amounted to 396 nM; in the assay with PC3 cells, 9.27 nM; on NAMPT, 0.277 nM.

For the compound `CC(C)OCC(=O)N1CCC(c2ccc(C(=O)NCc3ccn4ccnc4c3)cc2)CC1` [Example 237, N-(imidazo[1,2-a]pyridin-7-ylmethyl)-4-{1-[(propan-2-yloxy)acetyl]piperidin-4-yl}benzamide], the IC50 in assay [1] was 451 nM; in the assay on PC3 cells, 37.2 nM; at NAMPT, 0.285 nM.
